Assay results reported in PMC8205030, “Methoxy and bromo scans on N-(5-methoxyphenyl) methoxybenzenesulphonamides reveal potent cytotoxic compounds, especially against the human breast adenocarcinoma MCF7 cell line” (Journal of Enzyme Inhibition and Medicinal Chemistry, 2021).
Converted amounts (≈) assume the structure as drawn.

Test system: not given
Test: not given
Conditions: not given

| SMILES | melting point [°C] |
| --- | --- |
| COc1ccc(S(=O)(=O)N(C)c2cc(OC)c(Br)cc2OC)cc1 [Compound 24, N-(4-bromo-2,5-dimethoxyphenyl)-4-methoxy-N-methylbenzenesulphonamide] | 132 to 133 |
| COc1ccc(S(=O)(=O)Nc2cc(OC)c(OC)cc2OC)cc1 [Compound 32, 4-Methoxy-N-(2,4,5-trimethoxyphenyl)benzenesulphonamide] | 112 to 114 |
| COc1ccc(S(=O)(=O)N(C)c2cc(OC)c(OC)cc2OC)cc1 [Compound 33, 4-Methoxy-N-methyl-N-(2,4,5-trimethoxyphenyl)benzenesulphonamide] | 137 to 143 |
| COc1ccc(S(=O)(=O)N(CC#N)c2cc(OC)c(OC)cc2OC)cc1 [Compound 35, N-(cyanomethyl)-4-methoxy-N-(2,4,5-trimethoxyphenyl)benzenesulphonamide] | 173 to 180 |

Test system: HeLa (human cervical carcinoma) cells
Test: Cell growth assay (XTT), HeLa
Type: cell-based
Conditions: 72 h drug exposure, read-out: Antiproliferative activity IC50 HeLa
Description: (§1) The presence of mycoplasma was routinely checked with MycoAlert kit (Lonza-Cambrex) and only mycoplasma-free cells were used in the experiments. Tumour cell lines were kindly provided by Dr Faustino Mollinedo from Centro de Investigaciones Biológicas Margarita Salas, Madrid, Spain. To determine cell growth, cells in exponential growth phase were seeded (100 µL/well in 96-well plates) with appropriate cell concentration (1.5 × 10^4 cells/mL for MCF7, HeLa and HEK-293 and 3 × 10^4 cells/mL for HT-29) in complete DMEM or RPMI 1640 medium (see above) at 37 °C and 5% CO2 atmosphere. After 24 h incubation, to allow cells to attach to the plates, all compounds were added at 1 µM concentration (10 µL/well in 96-well plates) and the effect on the proliferation was evaluated 72 h post-treatment. Compounds showing antiproliferative effects at tested concentration were selected for IC50 calculation (50% inhibitory concentration compared to the untreated controls) from 10^−5 to 10^−10 M concentration. Nonlinear curves fitting the experimental data were carried out for each compound. […] A freshly prepared mixture solution of XTT labelling reagent with 0.02% (v/v) PMS (N-methyl-dibenzopyrazine methyl sulfate) electron coupling reagent was added to cells (50 µL/well in 96-well plates, the total volume of 160 µL/well) and were incubated during the corresponding time according to each cell line (4 h for MCF7 and HeLa and 6 h for HT-29 and HEK-293) in a humidified atmosphere (37 °C, 5% CO2). The absorbance of the formazan product generated was measured at a test wavelength of 450 nm using a multi-well plate reader (Ultra Evolution, Tecan, Männedorf, Suiza). Compounds were dissolved in DMSO and the final solvent concentrations never exceeded 0.5% (v/v). The control wells included treated cells with 0.5% (v/v) DMSO and the positive control. 10 µM verapamil was included as a control for the HT-29 cell line. Measurements were performed in triplicate, and each experiment was repeated three times.

| SMILES | IC50 [µM] |
| --- | --- |
| COc1ccc(S(=O)(=O)N(C)c2cc(OC)c(Br)cc2OC)cc1 [Compound 24, N-(4-bromo-2,5-dimethoxyphenyl)-4-methoxy-N-methylbenzenesulphonamide] | 0.033 |
| COc1ccc(S(=O)(=O)Nc2cc(OC)c(OC)cc2OC)cc1 [Compound 32, 4-Methoxy-N-(2,4,5-trimethoxyphenyl)benzenesulphonamide] | 0.41 |
| COc1ccc(S(=O)(=O)N(C)c2cc(OC)c(OC)cc2OC)cc1 [Compound 33, 4-Methoxy-N-methyl-N-(2,4,5-trimethoxyphenyl)benzenesulphonamide] | 0.413 |
| COc1ccc(S(=O)(=O)N(CC#N)c2cc(OC)c(OC)cc2OC)cc1 [Compound 35, N-(cyanomethyl)-4-methoxy-N-(2,4,5-trimethoxyphenyl)benzenesulphonamide] | 0.5 |

Test system: not listed separately
Test: Aqueous solubility (saturation shake-flask, UV)
Type: physicochemical
Conditions: aqueous buffer, thermodynamic from solid, pH 7.0 phosphate buffer, room temperature
Description: The aqueous solubility was determined in a Helios-α UV-320 Spectrophotometer Thermo-Spectronic, Thermo Fischer Scientific, Waltham, MA, USA) using an approach based on the saturation shake-flask method. 1–2 mg of each selected compound was suspended in 300 µL pH 7.0 buffer and stirred for 48 h at room temperature. The resulting mixture was filtered through a […] filter to discard the insoluble residues. A scan between 270 and 400 nm for the tested compound was performed and three wavelengths of maximum absorbance were selected. Calibration curves were performed at these wavelengths and the concentration in the supernatant was measured by UV absorbance. The final value was given as the average of the three measurements.

| SMILES | solubility at 48 h [µg/mL] |
| --- | --- |
| COc1ccc(S(=O)(=O)N(C)c2cc(OC)c(Br)cc2OC)cc1 [Compound 24, N-(4-bromo-2,5-dimethoxyphenyl)-4-methoxy-N-methylbenzenesulphonamide] | 1 (≈ 2.4 µM) |
| COc1ccc(S(=O)(=O)Nc2cc(OC)c(OC)cc2OC)cc1 [Compound 32, 4-Methoxy-N-(2,4,5-trimethoxyphenyl)benzenesulphonamide] | 213 (≈ 603 µM) |
| COc1ccc(S(=O)(=O)N(C)c2cc(OC)c(OC)cc2OC)cc1 [Compound 33, 4-Methoxy-N-methyl-N-(2,4,5-trimethoxyphenyl)benzenesulphonamide] | 157 (≈ 427 µM) |
| COc1ccc(S(=O)(=O)N(CC#N)c2cc(OC)c(OC)cc2OC)cc1 [Compound 35, N-(cyanomethyl)-4-methoxy-N-(2,4,5-trimethoxyphenyl)benzenesulphonamide] | 15 (≈ 38.2 µM) |

Test system: MCF7 (human breast carcinoma) cells
Test: Cell growth assay (XTT), MCF7
Type: cell-based
Conditions: Homo sapiens, MCF7; 72 h drug exposure, XTT; read-out: Antiproliferative activity IC50 MCF7
Description: as §1

| SMILES | IC50 [µM] |
| --- | --- |
| COc1ccc(S(=O)(=O)N(C)c2cc(OC)c(Br)cc2OC)cc1 [Compound 24, N-(4-bromo-2,5-dimethoxyphenyl)-4-methoxy-N-methylbenzenesulphonamide] | 0.019 |
| COc1ccc(S(=O)(=O)Nc2cc(OC)c(OC)cc2OC)cc1 [Compound 32, 4-Methoxy-N-(2,4,5-trimethoxyphenyl)benzenesulphonamide] | 0.58 |
| COc1ccc(S(=O)(=O)N(C)c2cc(OC)c(OC)cc2OC)cc1 [Compound 33, 4-Methoxy-N-methyl-N-(2,4,5-trimethoxyphenyl)benzenesulphonamide] | 0.099 |
| COc1ccc(S(=O)(=O)N(CC#N)c2cc(OC)c(OC)cc2OC)cc1 [Compound 35, N-(cyanomethyl)-4-methoxy-N-(2,4,5-trimethoxyphenyl)benzenesulphonamide] | 0.067 |

Same assay, conditions: ratio of IC50 values

| SMILES | Fold more potent against MCF7 than against HeLa |
| --- | --- |
| COc1ccc(S(=O)(=O)N(C)c2cc(OC)c(OC)cc2OC)cc1 [Compound 33, 4-Methoxy-N-methyl-N-(2,4,5-trimethoxyphenyl)benzenesulphonamide] | 4–7 fold |
| COc1ccc(S(=O)(=O)N(CC#N)c2cc(OC)c(OC)cc2OC)cc1 [Compound 35, N-(cyanomethyl)-4-methoxy-N-(2,4,5-trimethoxyphenyl)benzenesulphonamide] | 4–7 fold |

Test system: HT-29 (human colon carcinoma) cells
Test: Cell growth assay (XTT), HT-29, alone or with verapamil
Type: cell-based
Conditions: 72 h, in the presence of Pgp/MDR1 inhibitor verapamil (10 µM); read-out: Antiproliferative activity IC50 HT-29 Verap
Description: as §1, with “Compounds showing antiproliferative effects at tested concentration were selected for IC50 calculation (50% inhibitory concentration compared to the untreated controls) from 10^−5 to 10^−10 M concentration.” left out

| SMILES | IC50 [µM] |
| --- | --- |
| COc1ccc(S(=O)(=O)N(C)c2cc(OC)c(Br)cc2OC)cc1 [Compound 24, N-(4-bromo-2,5-dimethoxyphenyl)-4-methoxy-N-methylbenzenesulphonamide] | 0.16 |
| COc1ccc(S(=O)(=O)Nc2cc(OC)c(OC)cc2OC)cc1 [Compound 32, 4-Methoxy-N-(2,4,5-trimethoxyphenyl)benzenesulphonamide] | 0.553 |
| COc1ccc(S(=O)(=O)N(C)c2cc(OC)c(OC)cc2OC)cc1 [Compound 33, 4-Methoxy-N-methyl-N-(2,4,5-trimethoxyphenyl)benzenesulphonamide] | 0.577 |
| COc1ccc(S(=O)(=O)N(CC#N)c2cc(OC)c(OC)cc2OC)cc1 [Compound 35, N-(cyanomethyl)-4-methoxy-N-(2,4,5-trimethoxyphenyl)benzenesulphonamide] | 0.415 |

Same assay, conditions: Homo sapiens, HT-29; 72 h drug exposure, XTT; read-out: Antiproliferative activity IC50 HT-29

| SMILES | IC50 [µM] |
| --- | --- |
| COc1ccc(S(=O)(=O)N(C)c2cc(OC)c(Br)cc2OC)cc1 [Compound 24, N-(4-bromo-2,5-dimethoxyphenyl)-4-methoxy-N-methylbenzenesulphonamide] | 0.123 |
| COc1ccc(S(=O)(=O)Nc2cc(OC)c(OC)cc2OC)cc1 [Compound 32, 4-Methoxy-N-(2,4,5-trimethoxyphenyl)benzenesulphonamide] | 0.36 |
| COc1ccc(S(=O)(=O)N(C)c2cc(OC)c(OC)cc2OC)cc1 [Compound 33, 4-Methoxy-N-methyl-N-(2,4,5-trimethoxyphenyl)benzenesulphonamide] | 0.5 |
| COc1ccc(S(=O)(=O)N(CC#N)c2cc(OC)c(OC)cc2OC)cc1 [Compound 35, N-(cyanomethyl)-4-methoxy-N-(2,4,5-trimethoxyphenyl)benzenesulphonamide] | 0.365 |

Target: T1, microtubular protein isolated from calf brain (Bos taurus, UniProt P81947+Q6B856)
T1 construct: isolated from calf brain according to the modified Shelanski method; from tissue; host or cells: calf brain
Test: Inhibition of tubulin polymerisation (turbidity)
Type: biochemical
Conditions: 10 µM compound, 1.5 mg/mL microtubular protein
Description: Microtubular protein was isolated from calf brain according to the modified Shelanski method[23]^,[24] by two cycles of temperature-dependent assembly/disassembly and stored at −80 °C. Before each use, protein concentration is determined by Bradford method[25] taking BSA as standard. Tubulin polymerisation was monitored using a Helios α spectrophotometer by measuring the increase in turbidity at 450 nm, caused by a shift from 4 °C to 37 °C, which allows the in vitro microtubular protein to depolymerise and to polymerise, respectively. The assay was carried out in quartz cuvettes containing 1.5 mg/mL microtubular protein and the ligand (except for control cuvette with only DMSO at the same concentration) in a mixture of 0.1 M MES buffer, 1 mM EGTA, 1 mM MgCl2, 1 mM β-ME, and 1.5 mM GTP at pH 6.7 (final volume 500 µL). Cuvettes were preincubated at 20 °C for 30 min, to allow ligand binding to tubulin, and subsequently cooled on ice for 10 min. Then, the experiment starts at 4 °C to establish the initial baseline. The assembly process was initiated by a temperature shift to 37 °C and the turbidity produced by tubulin polymerisation can be measured by an absorbance increase. After reaching a stable plateau, the temperature was switched back to 4 °C to return to the initial absorption values (to confirm the reversible nature of the monitored process and to determine whether or not the microtubular protein has stabilized). The difference in amplitude between the stable plateau and the initial baseline of the curves was taken as the degree of tubulin polymerisation for each experiment. […] All compounds were tested at 10 µM concentration. IC50 values were calculated for compounds that inhibit tubulin polymerisation more than 50% at 10 µM. […] All the measurements were carried out in at least two independent experiments using microtubular protein from different preparations.

T1 sequence (Q6B856 whole entry): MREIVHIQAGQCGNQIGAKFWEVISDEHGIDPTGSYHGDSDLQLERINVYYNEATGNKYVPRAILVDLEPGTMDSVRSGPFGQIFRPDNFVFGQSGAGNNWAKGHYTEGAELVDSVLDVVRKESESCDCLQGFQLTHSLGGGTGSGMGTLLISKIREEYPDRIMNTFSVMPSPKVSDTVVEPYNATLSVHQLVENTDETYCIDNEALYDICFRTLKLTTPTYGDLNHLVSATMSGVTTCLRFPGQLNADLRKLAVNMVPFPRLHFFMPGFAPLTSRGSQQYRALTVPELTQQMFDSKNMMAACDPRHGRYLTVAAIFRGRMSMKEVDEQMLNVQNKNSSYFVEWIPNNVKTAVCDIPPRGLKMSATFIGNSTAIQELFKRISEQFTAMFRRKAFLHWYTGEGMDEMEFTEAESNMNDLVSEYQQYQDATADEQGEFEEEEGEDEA
T1 sequence (P81947 whole entry): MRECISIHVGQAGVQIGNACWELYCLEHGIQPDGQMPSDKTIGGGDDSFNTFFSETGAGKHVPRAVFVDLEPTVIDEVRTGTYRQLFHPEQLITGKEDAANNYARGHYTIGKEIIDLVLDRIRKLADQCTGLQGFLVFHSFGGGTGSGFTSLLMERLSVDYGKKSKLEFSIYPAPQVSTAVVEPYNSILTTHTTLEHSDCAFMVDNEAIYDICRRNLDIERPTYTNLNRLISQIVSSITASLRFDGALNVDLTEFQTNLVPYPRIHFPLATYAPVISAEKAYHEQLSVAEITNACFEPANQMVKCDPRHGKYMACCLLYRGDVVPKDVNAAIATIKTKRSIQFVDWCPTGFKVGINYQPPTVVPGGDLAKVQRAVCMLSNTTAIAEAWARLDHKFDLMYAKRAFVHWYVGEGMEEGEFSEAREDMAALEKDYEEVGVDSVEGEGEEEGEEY

| SMILES | TPI % 10 µM [%] |
| --- | --- |
| COc1ccc(S(=O)(=O)N(C)c2cc(OC)c(Br)cc2OC)cc1 [Compound 24, N-(4-bromo-2,5-dimethoxyphenyl)-4-methoxy-N-methylbenzenesulphonamide] | 59 |
| COc1ccc(S(=O)(=O)Nc2cc(OC)c(OC)cc2OC)cc1 [Compound 32, 4-Methoxy-N-(2,4,5-trimethoxyphenyl)benzenesulphonamide] | 3 |
| COc1ccc(S(=O)(=O)N(C)c2cc(OC)c(OC)cc2OC)cc1 [Compound 33, 4-Methoxy-N-methyl-N-(2,4,5-trimethoxyphenyl)benzenesulphonamide] | 0 |
| COc1ccc(S(=O)(=O)N(CC#N)c2cc(OC)c(OC)cc2OC)cc1 [Compound 35, N-(cyanomethyl)-4-methoxy-N-(2,4,5-trimethoxyphenyl)benzenesulphonamide] | 5 |

Same assay, conditions: in vitro tubulin polymerisation inhibition; read-out: TPI IC50

| SMILES | IC50 [µM] |
| --- | --- |
| COc1ccc(S(=O)(=O)N(C)c2cc(OC)c(Br)cc2OC)cc1 [Compound 24, N-(4-bromo-2,5-dimethoxyphenyl)-4-methoxy-N-methylbenzenesulphonamide] | 7.6 |
| COc1ccc(S(=O)(=O)Nc2cc(OC)c(OC)cc2OC)cc1 [Compound 32, 4-Methoxy-N-(2,4,5-trimethoxyphenyl)benzenesulphonamide] | > 10 |
| COc1ccc(S(=O)(=O)N(C)c2cc(OC)c(OC)cc2OC)cc1 [Compound 33, 4-Methoxy-N-methyl-N-(2,4,5-trimethoxyphenyl)benzenesulphonamide] | > 10 |
| COc1ccc(S(=O)(=O)N(CC#N)c2cc(OC)c(OC)cc2OC)cc1 [Compound 35, N-(cyanomethyl)-4-methoxy-N-(2,4,5-trimethoxyphenyl)benzenesulphonamide] | > 10 |

Test system: HEK293 (human embryonic kidney) cells
Test: Cell growth assay (XTT), non-tumorigenic HEK293
Type: cell-based
Conditions: not given
Description: as §1

| SMILES | Selectivity index HEK293 vs HeLa and MCF7 tumour cells |
| --- | --- |
| COc1ccc(S(=O)(=O)N(C)c2cc(OC)c(Br)cc2OC)cc1 [Compound 24, N-(4-bromo-2,5-dimethoxyphenyl)-4-methoxy-N-methylbenzenesulphonamide] | 3- to 5 fold |

Same assay, conditions: Homo sapiens, HEK293; non-tumorigenic cell line, 72 h, XTT; read-out: Antiproliferative activity IC50 HEK293

| SMILES | IC50 [µM] |
| --- | --- |
| COc1ccc(S(=O)(=O)N(C)c2cc(OC)c(Br)cc2OC)cc1 [Compound 24, N-(4-bromo-2,5-dimethoxyphenyl)-4-methoxy-N-methylbenzenesulphonamide] | 0.091 |
